Reference: US9179674B2, “Macrocyclic picolinamide compounds with fungicidal activity” (DOW AGROSCIENCES LLC, priority 2013, dated 2015)
Read-outs that look alike come from different tables or passages of the source.

Key:
Format in all cases: in vivo
[1] = test system: Mycosphaerella graminicola; Anamorph: Septoria tritici; test: Leaf Blotch of Wheat fungicidal activity (SEPTTR); details: Zymoseptoria tritici; for pest or weed control at 100 ppm: rate 100 ppm; for pest or weed control at 121.5 g/ha: rate 121.5 g/H
Summary of the method: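 Acetone solutions diluted with nine volumes of water containing 110 ppm Triton X-100, sprayed to run-off on first-leaf wheat seedlings (Yuma), inoculated with S. tritici before or after treatment. Plants held in dew chambers, then in a 20 °C greenhouse. Disease severity (0–100%) scored when untreated plants fully symptomatic; % control relative to untreated.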

[2] = test system: Puccinia triticina; test: Wheat Brown Rust fungicidal activity (PUCCRT); details: Puccinia triticina; for pest or weed control at 100 ppm: rate 100 ppm; for pest or weed control at 121.5 g/ha: rate 121.5 g/H
Summary of the method: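 Yuma wheat seedlings at first-leaf stage sprayed to run-off (acetone solution in water with 110 ppm Triton X-100) or track-sprayed as EC with 0.1% Trycol 5941; inoculated with P. triticina spores before or after treatment. Overnight dark dew at 22° C., then greenhouse 24° C.; disease severity 0–100% gives percent control vs untreated.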

[3] = test system: Glomerella lagenarium; Anamorph: Colletotrichum lagenarium; test: Cucumber Anthracnose fungicidal activity (COLLLA); details: Colletotrichum orbiculare, 24 h, 1 Day Protectant, read-out: Disease Control COLLLA 1DP
Protocol: Technical grades of materials were dissolved in acetone, which were then mixed with nine volumes of water containing 110 ppm Triton X-100. The fungicide solutions were applied onto wheat seedlings using an automated booth sprayer to run-off. All sprayed plants were allowed to air dry prior to further handling. All fungicides were evaluated using the aforementioned method for their activity vs. all target diseases. Wheat leaf blotch and brown rust activity were also evaluated using track spray applications, in which case the fungicides were formulated as EC formulations, containing 0.1% Trycol 5941 in the spray solutions. Wheat plants (variety Yuma) were grown from seed in a greenhouse in 50% mineral soil/50% soil-less Metro mix until the first leaf was fully emerged, with 7-10 seedlings per pot. These plants were inoculated with an aqueous spore suspension of Septoria tritici either prior to or after fungicide treatments. After inoculation the plants were kept in 100% relative humidity (one day in a dark dew chamber followed by two to three days in a lighted dew chamber at 20° C.) to permit spores to germinate and infect the leaf. The plants were then transferred to a greenhouse set at 20° C. for disease to develop. When disease symptoms were fully expressed on the 1st leaves of untreated plants, infection levels were assessed on a scale of 0 to 100 percent disease severity. Percent disease control was calculated using the ratio of disease severity on treated plants relative to untreated plants. Evaluation of Fungicidal Activity: Cucumber Anthracnose (Glomerella lagenarium; Anamorph: Colletotrichum lagenarium; Bayer Code COLLLA) Cucumber seedlings (variety Bush Pickle) were propagated in soil-less Metro mix, with each pot having one plant, and used in the test when 12 to 14 days old. Test plants were inoculated with an aqueous spore suspension of Colletotrichum lagenarium 24 hr after fungicide treatments. After inoculation the plants were kept in a dew room at 22° C. with 100% relative humidity for 48 hr to permit spores to germinate and infect the leaf. The plants were then transferred to a growth room set at 22° C. for disease to develop. Fungicide formulation, application and disease assessment on the sprayed leaves followed the procedures as described in the Example A.

[4] = 24 h, 1 Day Protectant, read-out: Disease control SEPTTR 1DP
[5] = 72 h, 3 Day Curative, read-out: Disease control SEPTTR 3DC
[6] = 24 h, 1 Day Protectant, read-out: Disease control PUCCRT 1DP
[7] = 72 h, 3 Day Curative, read-out: Disease control PUCCRT 3DC

SMILES	pest or weed control at 100 ppm [1, 4]	pest or weed control at 121.5 g/ha [1, 4]	pest or weed control at 100 ppm [1, 5]	pest or weed control at 121.5 g/ha [1, 5]	pest or weed control at 100 ppm [2, 6]	pest or weed control at 121.5 g/ha [2, 6]	pest or weed control at 100 ppm [2, 7]	pest or weed control at 121.5 g/ha [2, 7]	pest or weed control at 100 ppm [3]
COc1ccnc(C(=O)N[C@H]2COC[C@H](Cc3ccc(F)cc3)[C@@H](OCC(C)C)[C@H](C)OC2=O)c1OC(C)=O [Compound F60]	80 to 100%	80 to 100%	80 to 100%	80 to 100%	80 to 100%	80 to 100%	80 to 100%	80 to 100%	–
COc1ccnc(C(=O)N[C@H]2COC[C@H](Cc3ccc(Cl)cc3Cl)[C@@H](OC(=O)C(C)C)[C@H](C)OC2=O)c1OC(C)=O [Compound F73]	80 to 100%	80 to 100%	80 to 100%	80 to 100%	80 to 100%	80 to 100%	80 to 100%	0 to 80%	80 to 100%
COc1ccnc(C(=O)N[C@H]2COC[C@H](Cc3ccc(C)cc3)[C@@H](OCC(C)C)[C@H](C)OC2=O)c1OC(C)=O [Compound F80]	80 to 100%	80 to 100%	80 to 100%	80 to 100%	80 to 100%	80 to 100%	80 to 100%	80 to 100%	80 to 100%
COc1ccnc(C(=O)N[C@H]2COC[C@H](CCc3ccccc3)[C@@H](OCC(C)C)[C@H](C)OC2=O)c1OCOC(C)=O [Compound F82]	80 to 100%	80 to 100%	80 to 100%	80 to 100%	80 to 100%	80 to 100%	80 to 100%	80 to 100%	80 to 100%
COc1ccnc(C(=O)N[C@H]2COC[C@H](Cc3cccc4ccccc34)[C@@H](OC(=O)C(C)C)[C@H](C)OC2=O)c1OCOC(C)=O [Compound F83, (3S,6S,7R,8S)-3-(3-(acetoxymethoxy)-4-methoxypicolin-amido)-6-methyl-8-(naphthalen-1-ylmethyl)-4-oxo-1,5-dioxonan-7-yl isobutyrate]	80 to 100%	0 to 80%	80 to 100%	80 to 100%	80 to 100%	80 to 100%	80 to 100%	0 to 80%	80 to 100%
COc1ccnc(C(=O)N[C@H]2COC[C@H](Cc3ccc(F)cc3)[C@@H](OCC(C)C)[C@H](C)OC2=O)c1OCOC(C)=O [Compound F96]	80 to 100%	80 to 100%	80 to 100%	80 to 100%	80 to 100%	80 to 100%	80 to 100%	80 to 100%	80 to 100%
COc1ccnc(C(=O)N[C@H]2COC[C@H](CC(F)(F)F)[C@@H](OC3CCCC3)[C@H](C)OC2=O)c1OCOC(C)=O [Compound F105]	80 to 100%	80 to 100%	80 to 100%	80 to 100%	80 to 100%	80 to 100%	80 to 100%	80 to 100%	80 to 100%
COc1ccnc(C(=O)N[C@H]2COC[C@H](CCC(C)C)[C@@H](OCCCC(F)(F)F)[C@H](C)OC2=O)c1OCOC(C)=O [Compound F107]	80 to 100%	80 to 100%	80 to 100%	80 to 100%	80 to 100%	80 to 100%	80 to 100%	80 to 100%	–
COc1ccnc(C(=O)N[C@H]2COC[C@H](CCC(C)C)[C@@H](OC(=O)C3CC3)[C@H](C)OC2=O)c1OCOC(C)=O [Compound F108]	80 to 100%	80 to 100%	80 to 100%	80 to 100%	80 to 100%	80 to 100%	80 to 100%	80 to 100%	–
COc1ccnc(C(=O)N[C@H]2COC[C@H](Cc3ccc(Cl)cc3Cl)[C@@H](OC(=O)C(C)C)[C@H](C)OC2=O)c1OCOC(C)=O [Compound F110]	80 to 100%	80 to 100%	80 to 100%	80 to 100%	80 to 100%	80 to 100%	80 to 100%	0 to 80%	80 to 100%
COc1ccnc(C(=O)N[C@H]2COC[C@H](CC3CCCC3)[C@@H](OC(=O)C(C)C)[C@H](C)OC2=O)c1OCOC(C)=O [Compound F114]	80 to 100%	80 to 100%	80 to 100%	80 to 100%	80 to 100%	80 to 100%	80 to 100%	80 to 100%	80 to 100%
COc1ccnc(C(=O)N[C@H]2COC[C@H](Cc3ccc(C)cc3)[C@@H](OCC(C)C)[C@H](C)OC2=O)c1OCOC(C)=O [Compound F117]	80 to 100%	80 to 100%	80 to 100%	80 to 100%	80 to 100%	80 to 100%	80 to 100%	80 to 100%	80 to 100%
CCCCCO[C@@H]1[C@@H](Cc2ccc(Cl)cc2Cl)COC[C@H](NC(=O)c2nccc(OC)c2OCOC(=O)COCC)C(=O)O[C@H]1C [Compound F122]	–	80 to 100%	–	–	–	80 to 100%	–	0 to 80%	80 to 100%
CCCCCO[C@@H]1[C@@H](Cc2ccc(Cl)cc2Cl)COC[C@H](NC(=O)c2nccc(OC)c2OC(=O)CCOC)C(=O)O[C@H]1C [Compound F123]	–	80 to 100%	–	–	–	80 to 100%	–	–	80 to 100%
